According to patent publication US7696186B2, “7,9-substituted tetracycline compounds” (Paratek Pharmaceuticals, Inc., priority 2001, dated 2010):

Assays:
Assay in all cases: In Vitro Minimum Inhibitory Concentration (MIC) Assay
Assay type in all cases: cell-based
Design in all cases: key: compounds which were good inhibitors of growth of a particular bacteria are indicated with *; compounds which were very good inhibitors of a particular bacteria are indicated with **; compounds with were particularly good inhibitors of a particular bacteria are indicated with ***
Details in all cases: CAMHB, 35° C., approximately 18 hr
S. aureus = tested on: S. aureus
Procedure: (§1) In Vitro Minimum Inhibitory Concentration (MIC) Assay
(§2) The following assay is used to determine the efficacy of minocycline compounds against common bacteria. 2 mg of each compound is dissolved in 100 μl of DMSO. The solution is then added to cation-adjusted Mueller Hinton broth (CAMHB), which results in a final compound concentration of 200 μg per ml. The minocycline compound solutions are diluted to 50 μL volumes, with a test compound concentration of 0.098 μg/ml. Optical density (OD) determinations are made from fresh log-phase broth cultures of the test strains. Dilutions are made to achieve a final cell density of 1×10^6 CFU/ml. At OD=1, cell densities for different genera should be approximately:
(§3) 50 μl of the cell suspensions are added to each well of microtiter plates. The final cell density should be approximately 5×10^5 CFU/ml. These plates are incubated at 35° C. in an ambient air incubator for approximately 18 hr. The plates are read with a microplate reader and are visually inspected when necessary. The MIC is defined as the lowest concentration of the minocycline compound that inhibits growth. Compounds of the invention indicate good inhibition of growth.
(§4) In Table 2, compounds which were good inhibitors of growth of a particular bacteria are indicated with *, compounds which were very good inhibitors of a particular bacteria are indicated with **, and compounds with were particularly good inhibitors of a particular bacteria are indicated with ***.

E. hirae = tested on: E. hirae
Procedure: as §1, §2, §3, §4

E. coli = tested on: E. coli
Procedure: as §1, §2, §3, §4

SMILES: CCc1cc(C#CC2=CCCCC2)c(O)c2c1C[C@H]1C[C@H]3[C@H](N(C)C)C(O)=C(C(N)=O)C(=O)[C@@]3(O)C(O)=C1C2=O [Compound HO, 7-Ethyl-9-Cyclohexenylethynyl-Sancycline]
- S. aureus (inhibition of growth, MIC assay) (S. aureus): ***
- E. hirae (inhibition of growth, MIC assay) (E. hirae): ***
- E. coli (inhibition of growth, MIC assay) (E. coli): *

SMILES: CN(C)[C@@H]1C(O)=C(C(N)=O)C(=O)[C@@]2(O)C(O)=C3C(=O)c4c(O)c(-c5ccc6c(c5)OCO6)cc(-c5ccc6c(c5)OCO6)c4C[C@H]3C[C@@H]12 [Compound HZ, 7,9-Bis(3,4-Methylenedioxyphenyl)-Sancycline]
- S. aureus (inhibition of growth, MIC assay) (S. aureus): ***
- E. hirae (inhibition of growth, MIC assay) (E. hirae): **
- E. coli (inhibition of growth, MIC assay) (E. coli): *

SMILES: CN(C)[C@@H]1C(O)=C(C(N)=O)C(=O)[C@@]2(O)C(O)=C3C(=O)c4c(O)c(CN5C(=O)c6ccccc6C5=O)cc(CN5C(=O)c6ccccc6C5=O)c4C[C@H]3C[C@@H]12 [HB]
- S. aureus (inhibition of growth, MIC assay) (S. aureus): **
- E. hirae (inhibition of growth, MIC assay) (E. hirae): **
- E. coli (inhibition of growth, MIC assay) (E. coli): *

SMILES: COc1ccc(C#Cc2cc(C#Cc3ccc(OC)cc3)c3c(c2O)C(=O)C2=C(O)[C@]4(O)C(=O)C(C(N)=O)=C(O)[C@@H](N(C)C)[C@@H]4C[C@@H]2C3)cc1 [HC]
- S. aureus (inhibition of growth, MIC assay) (S. aureus): *
- E. hirae (inhibition of growth, MIC assay) (E. hirae): *
- E. coli (inhibition of growth, MIC assay) (E. coli): *

SMILES: CN(C)[C@@H]1C(O)=C(C(N)=O)C(=O)[C@@]2(O)C(O)=C3C(=O)c4c(O)c(CN)cc(-c5ccccc5)c4C[C@H]3C[C@@H]12 [HE]
- S. aureus (inhibition of growth, MIC assay) (S. aureus): **
- E. hirae (inhibition of growth, MIC assay) (E. hirae): **
- E. coli (inhibition of growth, MIC assay) (E. coli): *

SMILES: CCc1cc(CNC(=O)c2cccnc2)c(O)c2c1C[C@H]1C[C@H]3[C@H](N(C)C)C(O)=C(C(N)=O)C(=O)[C@@]3(O)C(O)=C1C2=O [HF]
- S. aureus (inhibition of growth, MIC assay) (S. aureus): *
- E. hirae (inhibition of growth, MIC assay) (E. hirae): **
- E. coli (inhibition of growth, MIC assay) (E. coli): *

SMILES: CCc1cc(CN)c(O)c2c1C[C@H]1C[C@H]3[C@H](N(C)C)C(O)=C(C(N)=O)C(=O)[C@@]3(O)C(O)=C1C2=O [HG]
- S. aureus (inhibition of growth, MIC assay) (S. aureus): **
- E. hirae (inhibition of growth, MIC assay) (E. hirae): *
- E. coli (inhibition of growth, MIC assay) (E. coli): *

SMILES: CN(C)[C@@H]1C(O)=C(C(N)=O)C(=O)[C@@]2(O)C(O)=C3C(=O)c4c(O)c(CNC(=O)c5cccnc5)cc(CCC5CCCCC5)c4C[C@H]3C[C@@H]12 [HI]
- S. aureus (inhibition of growth, MIC assay) (S. aureus): **
- E. hirae (inhibition of growth, MIC assay) (E. hirae): **
- E. coli (inhibition of growth, MIC assay) (E. coli): *

SMILES: CN(C)[C@@H]1C(O)=C(C(N)=O)C(=O)[C@@]2(O)C(O)=C3C(=O)c4c(O)c(CN)cc(-c5cccc([N+](=O)[O-])c5)c4C[C@H]3C[C@@H]12 [HJ]
- S. aureus (inhibition of growth, MIC assay) (S. aureus): **
- E. hirae (inhibition of growth, MIC assay) (E. hirae): **
- E. coli (inhibition of growth, MIC assay) (E. coli): *

SMILES: CN(C)[C@@H]1C(O)=C(C(N)=O)C(=O)[C@@]2(O)C(O)=C3C(=O)c4c(O)c(CN5C(=O)c6ccccc6C5=O)cc(-c5cccc([N+](=O)[O-])c5)c4C[C@H]3C[C@@H]12 [HK]
- S. aureus (inhibition of growth, MIC assay) (S. aureus): **
- E. hirae (inhibition of growth, MIC assay) (E. hirae): **
- E. coli (inhibition of growth, MIC assay) (E. coli): *

SMILES: CCCc1cc(CN)c(O)c2c1C[C@H]1C[C@H]3[C@H](N(C)C)C(O)=C(C(N)=O)C(=O)[C@@]3(O)C(O)=C1C2=O [HL]
- S. aureus (inhibition of growth, MIC assay) (S. aureus): **
- E. hirae (inhibition of growth, MIC assay) (E. hirae): **
- E. coli (inhibition of growth, MIC assay) (E. coli): **

SMILES: CN(C)[C@@H]1C(O)=C(C(N)=O)C(=O)[C@@]2(O)C(O)=C3C(=O)c4c(O)c(CN)cc(-c5ccc(F)cc5)c4C[C@H]3C[C@@H]12 [HM]
- S. aureus (inhibition of growth, MIC assay) (S. aureus): **
- E. hirae (inhibition of growth, MIC assay) (E. hirae): **
- E. coli (inhibition of growth, MIC assay) (E. coli): **

SMILES: CN(C)[C@@H]1C(O)=C(C(N)=O)C(=O)[C@@]2(O)C(O)=C3C(=O)c4c(O)c(CNC(=O)CCl)cc(-c5ccccc5)c4C[C@H]3C[C@@H]12 [HN]
- S. aureus (inhibition of growth, MIC assay) (S. aureus): ***
- E. hirae (inhibition of growth, MIC assay) (E. hirae): **
- E. coli (inhibition of growth, MIC assay) (E. coli): *

SMILES: CN(C)[C@@H]1C(O)=C(C(N)=O)C(=O)[C@@]2(O)C(O)=C3C(=O)c4c(O)c(C(C)(C)C)cc(-c5cccc([N+](=O)[O-])c5)c4C[C@H]3C[C@@H]12 [HP]
- S. aureus (inhibition of growth, MIC assay) (S. aureus): **
- E. hirae (inhibition of growth, MIC assay) (E. hirae): ***
- E. coli (inhibition of growth, MIC assay) (E. coli): *

SMILES: CCCCc1cc(CN)c(O)c2c1C[C@H]1C[C@H]3[C@H](N(C)C)C(O)=C(C(N)=O)C(=O)[C@@]3(O)C(O)=C1C2=O [HQ]
- S. aureus (inhibition of growth, MIC assay) (S. aureus): **
- E. hirae (inhibition of growth, MIC assay) (E. hirae): **
- E. coli (inhibition of growth, MIC assay) (E. coli): **

SMILES: CN(C)[C@@H]1C(O)=C(C(N)=O)C(=O)[C@@]2(O)C(O)=C3C(=O)c4c(O)c(CNC(=O)C5CCCO5)cc(-c5ccc(F)cc5)c4C[C@H]3C[C@@H]12 (stereo partly drawn) [HR]
- S. aureus (inhibition of growth, MIC assay) (S. aureus): **
- E. hirae (inhibition of growth, MIC assay) (E. hirae): **
- E. coli (inhibition of growth, MIC assay) (E. coli): *

SMILES: CCCCCCc1cc(CN)c(O)c2c1C[C@H]1C[C@H]3[C@H](N(C)C)C(O)=C(C(N)=O)C(=O)[C@@]3(O)C(O)=C1C2=O [HS]
- S. aureus (inhibition of growth, MIC assay) (S. aureus): **
- E. hirae (inhibition of growth, MIC assay) (E. hirae): ***
- E. coli (inhibition of growth, MIC assay) (E. coli): ***

SMILES: CC(=O)NCc1cc(-c2ccc(F)cc2)c2c(c1O)C(=O)C1=C(O)[C@]3(O)C(=O)C(C(N)=O)=C(O)[C@@H](N(C)C)[C@@H]3C[C@@H]1C2 [HT]
- S. aureus (inhibition of growth, MIC assay) (S. aureus): **
- E. hirae (inhibition of growth, MIC assay) (E. hirae): **
- E. coli (inhibition of growth, MIC assay) (E. coli): *

SMILES: CCCCCc1cc(CN2C(=O)c3ccccc3C2=O)c(O)c2c1C[C@H]1C[C@H]3[C@H](N(C)C)C(O)=C(C(N)=O)C(=O)[C@@]3(O)C(O)=C1C2=O [HU]
- S. aureus (inhibition of growth, MIC assay) (S. aureus): **
- E. hirae (inhibition of growth, MIC assay) (E. hirae): ***
- E. coli (inhibition of growth, MIC assay) (E. coli): *

SMILES: CCc1cc(CC)c2c(c1O)C(=O)C1=C(O)[C@]3(O)C(=O)C(C(N)=O)=C(O)[C@@H](N(C)C)[C@@H]3C[C@@H]1C2 [HV]
- S. aureus (inhibition of growth, MIC assay) (S. aureus): ***
- E. hirae (inhibition of growth, MIC assay) (E. hirae): ***
- E. coli (inhibition of growth, MIC assay) (E. coli): **

SMILES: CCc1cc(C#Cc2ccc(OC)cc2)c(O)c2c1C[C@H]1C[C@H]3[C@H](N(C)C)C(O)=C(C(N)=O)C(=O)[C@@]3(O)C(O)=C1C2=O [HW]
- S. aureus (inhibition of growth, MIC assay) (S. aureus): **
- E. hirae (inhibition of growth, MIC assay) (E. hirae): **
- E. coli (inhibition of growth, MIC assay) (E. coli): *

SMILES: CC(=O)NCc1cc(-c2ccccc2)c2c(c1O)C(=O)C1=C(O)[C@]3(O)C(=O)C(C(N)=O)=C(O)[C@@H](N(C)C)[C@@H]3C[C@@H]1C2 [HX]
- S. aureus (inhibition of growth, MIC assay) (S. aureus): **
- E. hirae (inhibition of growth, MIC assay) (E. hirae): ***
- E. coli (inhibition of growth, MIC assay) (E. coli): *

SMILES: CC#Cc1cc(C#CC)c2c(c1O)C(=O)C1=C(O)[C@]3(O)C(=O)C(C(N)=O)=C(O)[C@@H](N(C)C)[C@@H]3C[C@@H]1C2 [IA]
- S. aureus (inhibition of growth, MIC assay) (S. aureus): *
- E. hirae (inhibition of growth, MIC assay) (E. hirae): *
- E. coli (inhibition of growth, MIC assay) (E. coli): *
